In patent US5977319A, “Specific binding members for estradiol; materials and methods” (Cambridge Antibody Technology Limited, priority 1997, dated 1999):
“Also recorded” adds a separate entry of the source.

How the values were obtained:
[1] = target: antibody D12 single-chain Fv (VH SEQ ID NO:2, VL SEQ ID NO:12; clone 1C with Ala80-Val80 in the lambda light chain); assay: Equilibrium dialysis, competition of steroids with tritium labelled estradiol for antibody D12; format: binding, human; details: for Kd: D12 13.3 nM, 4 nM tritium labelled estradiol, competing steroid 100 nM to 100 μM, competitive inhibition assumed, read-out: affinities (dissociation constants) for cross-reactive steroids
Method: Dissociation constants were measured by equilibrium dialysis using conditions described for testosterone and estriol (FIG. 3 and the description of FIG. 3 given below). All steroids were tested at concentrations ranging from 10 nM to their solubility limits in PBS. The dissociation constants of antibody D12 for these compounds were calculated assuming that they were competitive inhibitors of estradiol binding.
Antibody D12 (13.3 nM) was incubated with 4 nM tritium labelled estradiol, plus competing steroid (100 nM to 100 μM). Pooled data from 3 experiments. Equilibrium dialysis was carried out for 20 hr at 22° C. in phosphate buffered saline with a membrane having a 12 kDa exclusion limit.
Antibody D12 (at a concentration of 13.3 nM) was incubated for 2 h with a mixture containing both tritium labelled estradiol (4 nM) and the competing steroid (100 nM to 100 μM), before equilibrium dialysis. The binding of other steroids to D12 antibody was quantified assuming competitive inhibition of estradiol binding. Data was analyzed with proprietary software (FIG.P package: Elsevier Biosoft).

[2] = system: antibody D12 single-chain Fv (VH SEQ ID NO:2, VL SEQ ID NO:12); assay: ELISA, inhibition of antibody binding to BSA-estradiol by soluble steroid; parameters: species or system human
Method: An ELISA-based screening method was used to rank different clones on the basis of their relative equilibrium dissociation constants for estradiol. In this assay, crude culture supernatant was equilibrated with soluble steroids at a range of concentrations (10 μM, 1 μM, 100 nM and zero estradiol) then applied to ELISA wells coated with […]. Affinity for the soluble steroid was then indicated by a reduction in ELISA signal intensity due to the antibody being in complex with the soluble ligand and unavailable for binding to the plate. This gives a reduction in ELISA signal.
The binding properties of other steroids were investigated by measuring their ability to compete with estradiol for binding to D12 antibody. This was investigated using the ELISA based screening method (Example 2b) and any cross-reacting compounds were investigated further by equilibrium dialysis.
Culture supernatant from the antibody clone D12 was equilibrated with soluble steroid at a range of concentrations from 5 nM to 100 mM (or the limit solubility of the steroid), then transferred to an ELISA plate coated with BSA-estradiol. The ELISA plate was then processed as for a standard phage ELISA assay. Affinity for the soluble competing steroid was then indicated by a reduction in ELISA signal intensity due to the antibody being in complex with the soluble ligand and unavailable for binding to the plate.

[3] = target: antibody D12 single-chain Fv (VH SEQ ID NO:2, VL SEQ ID NO:12; clone 1C with Ala80-Val80 in the lambda light chain); assay: Equilibrium dialysis, binding of tritium labelled estradiol to antibody D12; parameters: species or system human; details: 22° C., PBS, 20 hr, read-out: dissociation constant for estradiol
Method: Antibody diluted 4-fold to 200-fold was incubated with 50 pM tritium labelled estradiol plus unlabelled estradiol giving total estradiol concentrations from 100 pM to 100 μM. […] Equilibrium dialysis was carried out for 20 hr at 22° C. in phosphate buffered saline with a membrane having a 12 kDa exclusion limit.
Equilibrium dialysis was carried out at 22° C. in phosphate-bufferedsaline (PBS) using a microdialyzer (Hoefer) with a membrane having a 12 kDa exclusion limit. […] Antibody diluted 4-fold to 200-fold (from 0.7 nM to 33 nM, based on concentrations calculated from binding data) was incubated with 50 pM labelled estradiol (Amersham, tritium-labelled at positions 2,4,6,7,16,17) plus unlabelled estradiol to give total estradiol concentrations from 100 pM-100 μM. Mixtures were equilibrated for 2 h at 22° C. and dialysed against PBS for 20 h with constant mixing, before taking samples from each chamber for measurement of radioactivity.
Over the range of ligand concentrations necessary for affinity measurement (up to 100 nM), less than 10% of labelled estradiol bound non-specifically. After subtraction of non-specific binding, the dissociation constant (Kd) of estradiol binding to antibody D12 was calculated from equilibrium dialysis data using a non-linear least-squaresfit, assuming a single class of binding sites.

[4] = target: mouse monoclonal antibody DB3; details: read-out: dissociation constant; cited from earlier work
[5] = target: progesterone-binding antibody from a non immunised murine repertoire; details: cited from earlier work
[6] = soluble steroid 5 nM to 100 mM (or the limit solubility of the steroid)

## C[C@]12CC[C@@H]3c4ccc(O)cc4CC[C@H]3[C@@H]1C[C@H](O)[C@@H]2O [16-epiestriol]
[1]
  Kd: 163 µM
[2]; soluble steroid at 100 μM
  inhibition of binding to BSA-estradiol in ELISA: inhibited estradiol binding; also recorded: inhibited only at very high concentrations

## C[C@]12CC[C@@H]3c4ccc(O)cc4CC[C@H]3[C@@H]1C[C@@H](O)[C@H]2O [17-epiestriol]
[2]; soluble steroid at 100 μM
  inhibition of binding to BSA-estradiol in ELISA: inhibited estradiol binding; also recorded: inhibited only at very high concentrations

## C[C@]12CC[C@@H]3c4ccc(O)cc4CC[C@H]3[C@@H]1C[C@@H](O)[C@@H]2O [Estriol, estriol]
[2]; soluble steroid at 30 μM
  inhibition of binding to BSA-estradiol in ELISA: did not inhibit estradiol binding

## C[C@]12CC[C@@H]3c4ccc(OS(=O)(=O)O)cc4CC[C@H]3[C@@H]1C[C@@H](O)[C@@H]2O [Estriol-3-sulphate]
[2]; soluble steroid at 100 μM
  inhibition of binding to BSA-estradiol in ELISA: inhibited estradiol binding
[2]; soluble steroid at 100 μM, listed as Estriol-3 sulphate
  inhibition of binding to BSA-estradiol in ELISA: inhibited only at very high concentrations

## CC(C)CCC[C@@H](C)[C@H]1CC[C@H]2[C@@H]3CC=C4C[C@@H](O)CC[C@]4(C)[C@H]3CC[C@]12C [cholesterol]
[2]; [6]
  inhibition of binding to BSA-estradiol in ELISA: neither cholesterol nor estriol-3-β-D-glucuronide inhibited; also recorded: did not show any inhibition

## C[C@]12CCC(=O)C[C@@H]1CC[C@@H]1[C@@H]2CC[C@]2(C)[C@@H](O)CC[C@@H]12 [dihydrotestosterone]
[2]; soluble steroid at 30 μM
  inhibition of binding to BSA-estradiol in ELISA: showed inhibition
[2]; soluble steroid at 30 μM, listed as Dihydrotestosterone
  inhibition of binding to BSA-estradiol in ELISA: inhibited estradiol binding

## C[C@]12CC[C@@H]3c4ccc(O)cc4CC[C@H]3[C@@H]1CC[C@@H]2O [estradiol, 1,3,5.estratriene 3,17 β-diol]
[3]
  Kd: 0.0037 µM

## C[C@]12CC[C@@H]3c4ccc(O[C@@H]5O[C@H](C(=O)O)[C@@H](O)[C@H](O)[C@H]5O)cc4CC[C@H]3[C@@H]1C[C@@H](O)[C@@H]2O [estriol-3-β-D-glucuronide]
[2]; [6]
  inhibition of binding to BSA-estradiol in ELISA: neither cholesterol nor estriol-3-β-D-glucuronide inhibited
[2]; soluble steroid 5 nM to 100 mM (or the limit solubility of the steroid), listed as Estriol-3-β-D-glucuronide
  inhibition of binding to BSA-estradiol in ELISA: did not show any inhibition

## CC(=O)[C@H]1CC[C@H]2[C@@H]3CCC4=CC(=O)CC[C@]4(C)[C@H]3CC[C@]12C [progesterone]
[2]; soluble steroid at 100 μM
  inhibition of binding to BSA-estradiol in ELISA: inhibited estradiol binding; also recorded: inhibited only at very high concentrations
[4]
  Kd: ~0.001 µM
[5]
  dissociation constant: only micromolar

## C[C@]12CC[C@H]3[C@@H](CCC4=CC(=O)CC[C@@]43C)[C@@H]1CC[C@@H]2O [testosterone]
[1]
  selectivity for estradiol over the steroid: approximately 1,000 fold
  Kd: 15 µM
[2]; soluble steroid at 30 μM
  inhibition of binding to BSA-estradiol in ELISA: inhibited estradiol binding; also recorded: showed inhibition
